Test results: PMC11009276, “Design, synthesis, biological assessment and molecular modeling studies of novel imidazothiazole-thiazolidinone hybrids as potential anticancer and anti-inflammatory agents” (Scientific Reports, 2024)
Values belong to the molecule of their own block, whether it stands above or below them.

Assays:
[1] = tested on: carrageenan-induced rat hind paw edema; assay: Carrageenan-induced rat paw edema inhibition assay; assay type: in vivo; conditions: after 4 h; for % inhibition (paw edema) / Increase in Paw volume SEM: oral 0.0314 mmol/kg; for Increase in Paw volume SEM: n = 6; for Activity relative to standard drug: relative to diclofenac sodium
Experimental: The anti-inflammatory efficacy of the newly synthesised compounds was assessed using a carrageenan-induced rat hind paw edema technique The animals were divided into groups of six at random, fasted for 24 h before to the experiment, and given free access to water. 0.5% CMC solution was given to the control group only. […] One hour after the administration of the test compounds and the reference drug, 0.1 mL of a 1% carrageenan solution in saline was subcutaneously injected into the subplantar area of the right hind paw of each rat. The right hind paw volume was measured using a Digital Plethysmometer PLM-01 Plus (Orchid Scientifics and Innovatives India Pvt. Ltd., Mumbai, India) at 3 and 4 h after carrageenan therapy. The following calculation was used to compute the percent edema inhibition from the mean effect in the treated and control animals: Percent edema inhibition=Vc-Vt/Vc×100 where Vc denotes the mean increase in paw volume in the control group of rats and Vt denotes the mean increase in paw volume in rats treated with test chemicals. After a 15-day washout period, the same group of rats utilised for the anti-inflammatory activity were employed for the ulcerogenic activity.

[2] = molecular target: EGFR kinase (Homo sapiens, UniProt P00533); assay: In vitro EGFR kinase inhibitory assay (ELISA, phospho-EGFR in A549 cell lysates)
EGFR kinase, sequence (P00533 25-1210): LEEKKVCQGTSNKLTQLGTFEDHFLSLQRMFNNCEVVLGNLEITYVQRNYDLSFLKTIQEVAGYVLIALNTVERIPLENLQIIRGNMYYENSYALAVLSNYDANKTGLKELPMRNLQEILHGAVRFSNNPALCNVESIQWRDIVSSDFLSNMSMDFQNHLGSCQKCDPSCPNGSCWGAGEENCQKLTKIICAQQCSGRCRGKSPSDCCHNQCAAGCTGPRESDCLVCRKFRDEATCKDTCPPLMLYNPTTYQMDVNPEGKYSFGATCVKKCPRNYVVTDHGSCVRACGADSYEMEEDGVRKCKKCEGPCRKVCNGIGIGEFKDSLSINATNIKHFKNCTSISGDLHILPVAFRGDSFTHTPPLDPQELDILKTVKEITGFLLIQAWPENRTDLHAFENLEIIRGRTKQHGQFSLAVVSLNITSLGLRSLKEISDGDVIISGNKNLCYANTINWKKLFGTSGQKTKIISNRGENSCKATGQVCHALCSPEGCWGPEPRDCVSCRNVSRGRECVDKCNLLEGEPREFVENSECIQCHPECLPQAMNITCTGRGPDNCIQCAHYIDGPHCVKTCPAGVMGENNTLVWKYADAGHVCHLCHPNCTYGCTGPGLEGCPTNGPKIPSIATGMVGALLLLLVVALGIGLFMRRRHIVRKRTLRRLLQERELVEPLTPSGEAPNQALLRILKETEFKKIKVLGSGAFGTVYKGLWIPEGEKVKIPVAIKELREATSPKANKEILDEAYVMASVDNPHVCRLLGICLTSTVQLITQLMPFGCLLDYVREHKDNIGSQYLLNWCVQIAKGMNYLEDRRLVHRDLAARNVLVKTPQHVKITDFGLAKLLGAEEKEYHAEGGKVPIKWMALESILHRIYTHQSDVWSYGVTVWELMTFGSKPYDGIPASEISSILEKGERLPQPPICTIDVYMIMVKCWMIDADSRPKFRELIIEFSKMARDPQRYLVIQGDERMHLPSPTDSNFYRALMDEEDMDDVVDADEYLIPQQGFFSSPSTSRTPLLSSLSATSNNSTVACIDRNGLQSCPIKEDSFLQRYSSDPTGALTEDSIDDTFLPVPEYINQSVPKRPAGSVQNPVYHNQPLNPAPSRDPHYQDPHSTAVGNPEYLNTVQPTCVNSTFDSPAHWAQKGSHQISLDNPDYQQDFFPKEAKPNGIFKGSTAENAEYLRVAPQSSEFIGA
Experimental: For all the synthesized compounds, the overall methodology of a spectrophotometric assay for the inhibition of EGFR tyrosine kinase activity was evaluated in human A549 cells, which expressed high levels of EGFR protein. […] Cells were then washed with cold PBS, lysed in 0.2 ml/well of HNTG buffer (50 mM HEPES [(4‐(2‐hydroxyethyl)‐piperazineethanesulfonic acid; pH 7.5], 150 mM NaCl, 1.5 mM MgCl, 10% glycerol, 1% Triton X‐100, 0.5 mM sodium fluoride, 2 g/ml aprotinin, 2 g/ml pepstatin A, 1 mM sodium orthovanadate, 2 g/ml leupeptin, 1 mM phenyl methyl sulfonyl fluoride) for 10 min, and the lysates were collected as the supernatant fraction after a 12‐min centrifugation at 15,000 g. The specific EGFR concentration was measured by ELISA assay. Briefly, the wells of ELISA plates were coated with supernatant fraction and incubated at 4 °C overnight After washing three times with buffer (20 mM PBS, pH 7.2 containing 0.05% Tween‐20), the wells were blocked with 1% BSA for 2–3 h at room temperature. Further, the plate was washed and then mouse serum at 1,000‐fold dilution was added, followed by washing and incubation with phospho‐EGFR antibody (Invitrogen) at 4 °C overnight. The wells were washed and incubated with substrate solution (o‐phenylenediamine dihydrochloride), for 30 min, and the absorbance read on an ELISA plate reader at 490 nm[52]. %Inhibition=mean OD of untreated group-mean OD of treated group/mean OD of untreated group)×100.

[3] = tested on: A549 cells; assay: Wound healing (migration) assay; assay type: cell-based, human; conditions: 30 µM, 0 and 24 h, vs control
Experimental: Migration of cells is directly associated with tumor progression and metastasis of cancerous cells. […] An artificial scratch or wound was created on the monolayer of A549 cells using a 200µL sterile pipette tip. […] The images of cells to fill up the artificial scratch or wounds were photographed at 0 and 24 h after the treatment and the responses were visualized using phase contrast microscopy.
Wound healing was performed with A549 cells. On six-well plates, cells were seeded at a density of 5 × 10^5 cells per well and cultured as a confluent monolayer for 24 h. A […] pipette sterile tip was used to make an artificial scratch or wound on the monolayer of A549 cells after a 24-h period, and well plates were then washed with PBS to eliminate any non-adherent cells. The therapy was then administered at the appropriate concentrations of chemicals 4c and 4b. A Nikon phase contrast microscope was used to take pictures of the movement of cells over the scratched region at 0 and 24 h in two or three randomly chosen fields.

[4] = tested on: A549 (Lung) cancer cell line; assay: MTT cytotoxicity assay, A549; conditions: Homo sapiens, A549, 72 h, read-out: IC50 (µM) (Mean ± SD) A549
Experimental: (§1) All the synthesized imidazothiazole derivatives linked with thiazolidinone moiety (4a-g and 5a-d, Fig. 4) were evaluated for their in- vitro anticancer activities against three selected human cancer cell lines namely non-small lung (A549), breast (MCF7) and colorectal (HCT116) and one normal human embryonic kidney cell line (HEK293) using the 3‐(4,5‐Dimethylthiazol‐2‐yl)-2,5‐Diphenyltetrazolium Bromide (MTT) assay method. […] Compounds were tested against selected cancer cell lines namely A549 (Lung), MCF-7(Breast) HCT116 (Colon), normal human embryonic kidney cell line (HEK293) and procured from National Centre for Cell Science Complex (NCCS) Pune University, India. Into a 96 well plate, cells were seeded into each well (3 × 10^3 cells/ per well), the plate were incubated for 24 h, after that the culture medium was discarded and replaced with fresh medium along with our newly synthesized test compounds in different concentration (10, 20, 40 and 80 µM) followed by incubation for 72 h. […] Finally, each well is treated with DMSO (100 µL) and swirled to dissolve the dark crystals of formazan. ELISA reader was used to measure the absorbance at 570 nm. The experiment was repeated three times; Graph pad prism and excel are used to calculate the IC50 values[51].

[5] = tested on: HCT116 human colorectal cancer cell line; assay: MTT cytotoxicity assay, HCT116; conditions: HCT-116, 72 h, read-out: IC50 (µM) (Mean ± SD) HCT116
Experimental: as §1

[6] = tested on: gastric mucosa of rats; assay: Ulcerogenic activity; assay type: in vivo, rat; conditions: oral 0.0942 mmol/kg
Experimental: The Compounds (4a-d, 5a-b) which were found potent as anti-inflammatory agents were further screened for their ulcerogenic risk. The compounds and the standard drug were tested at an oral dose of 0.0942 mmol/kg.
Animals were divided into different groups consisting of 6 rats per group. […] The control group received 0.5% of the carboxymethylcellulose (CMC) solution. […] 24 h before the test compounds were administered. After receiving the medication, the rats were given regular food for 17 h and then sacrificed. The stomach was taken out and opened along its greater curvature before being gently cleansed by dipping it in normal saline and then washing it with distilled water. The mucosal injury/damage was examined thoroughly using a magnifying glass. The mucosal injury in each stomach was scored using the following score system: 0.5: Redness; 1.0: Spot Ulcers; 1.5: Hemorrhagic Streaks; 2.0: Ulcers > 3 but 5, 3.0: Ulcers > 5. The severity index (SI) of stomach mucosal injury was calculated as the mean score of each treated group minus the mean score of the control group.

[7] = tested on: gastric mucosa tissue of rats; assay: Lipid peroxidation in gastric mucosa; assay type: in vivo, rat; conditions: oral 0.0942 mmol/kg
Experimental: The compounds screened for ulcerogenic potential were also analysed for lipid peroxidation. Lipid peroxidation is measured as nmolMDA/100 mg of gastric mucosa tissue. […] Thus, it was concluded that protection of gastric mucosa might be related to the inhibition of lipid peroxidation.
Lipid peroxidation in the gastric mucosa was determined using the reported method by Ohkawa H. et al.[61]. The gastric mucosa of the glandular area was scraped off using glass slides after the stomach had been examined for ulcers. Gastric mucosa was weighed (100 mg) and homogenised in 1.8 cm^3 of ice-cold solution of KCl (1.15%). The homogenate is further added with 0.2 cm^3 of 8.1% sodium dodecyl sulphate (SDS), 1.5 cm^3 of acetate buffer, and 1.5 cm^3 of 0.8% thiobarbituric acid. After adding all buffers, the mixture was kept for incubation for 60 min over water bath, maintaining the temperature of the water bath at 95 °C. Later, the mixture was allowed to cool and then extracted with a freshly prepared mixture of n-butanol and pyridine (15:1 v/v), the organic layer obtained was centrifuged at 3000 rpm for about 10 min. The organic layer was separated out and visualised on UV–visible spectrophotometer. Concentration was measured using the following formula: Concentration=Absorbance×volume×109÷1.56×10^5×1000
Results obtained were expressed as nmol MDA/100 mg tissue and extinction coefficient (1.56 × 10^5) cm^-1 M^-1.

[8] = tested on: A549 cells; assay: AO/EB dual staining apoptosis assay; assay type: cell-based, human; conditions: vs control
Experimental: An early and late apoptotic along with necrotic cells were also observed in active compounds (4a-c) treated A549 cells (Fig. 9b).
A549 cell lines were cultured in six-well plates at 4 × 10^4 cells/well and then these cells were treated with 1.56 and 12.5 μg mL^−1 of […] for 48 h respectively. Further, Cells were harvested and stained with AO-EtBr dye mix (1:1 v/v from 100 μg mL^−1 in PBS) and studied using a fluorescent microscope.

[9] = tested on: MCF7 human breast cancer cell line; assay: MTT cytotoxicity assay, MCF7; conditions: MCF7, 72 h, read-out: IC50 (µM) (Mean ± SD) MCF7
Experimental: as §1

[10] = tested on: A549 cells; assay: DAPI nuclear staining; assay type: cell-based, human; conditions: IC50 dose, 48 h
Experimental: A549 cells were treated with compound 4a, 4b, 4c and morphological changes were observed after nuclear staining with 4′,6‐diamidino‐2‐phenylindole (DAPI).
Cellular nuclear morphology was evaluated by fluorescence microscopy following DAPI staining. […] After incubation, the cells were again gently washed with PBS and the coverslips were mounted on sterile slides using a DPX mounting medium. The prepared slides were observed under a fluorescence microscope (Nikon) having a blue or cyan filter at × 40 magnification.

SMILES: CC1SC(c2c(-c3ccccc3)nc3sccn23)N(c2ccc(Br)cc2)C1=O (stereo not drawn) [Compound 4c, 3-(4-Bromophenyl)-5-methyl-2-(6-phenylimidazo[2,1-b]thiazol-5-yl) thiazolidin-4-one]
% inhibition (paw edema) [1]: 80.17%
Increase in Paw volume SEM [1]: 0.136 ± 0.014
Activity relative to standard drug [1]: 99.82
IC50 [2]: 18.4 ± 1.25 µM
Migration of A549 cells (wound healing) [3]: significant suppression in the migration of A549 cells
IC50 [4]: 10.7 ± 0.4 µM
IC50 [5]: 23.2 ± 1.89 µM
Mean ulcer severity index ± SEM [6]: 0.500 ± 0.182
Lipid peroxidation [7]: 5.37 ± 0.060 Nmol MDA/100 mg tissue
Apoptotic cells (AO/EB dual staining) [8]: number of apoptotic cells enhanced
IC50 [9]: 18.7 ± 0.88 µM
Nuclear morphological change (DAPI) [10]: chromatin condensation and nuclear fragmentation and margination of nucleus

SMILES: CC1SC(c2c(-c3ccccc3)nc3sccn23)N(c2ccc(Cl)cc2)C1=O (stereo not drawn) [Compound 4b, 3-(4-Chlorophenyl)-5-methyl-2-(6-phenylimidazo[2,1-b]thiazol-5-yl) thiazolidin-4-one]
% inhibition (paw edema) [1]: 81.34%
Increase in Paw volume SEM [1]: 0.128 ± 0.018
Activity relative to standard drug [1]: 101.27
IC50 [2]: 24.3 ± 1.73 µM
Migration of A549 cells (wound healing) [3]: significant suppression in the migration of A549 cells
IC50 [4]: 21.1 ± 1.04 µM
IC50 [5]: 45 ± 1.02 µM
Mean ulcer severity index ± SEM [6]: 0.416 ± 0.153
Lipid peroxidation [7]: 4.12 ± 0.159 Nmol MDA/100 mg tissue
Apoptotic cells (AO/EB dual staining) [8]: number of apoptotic cells enhanced
IC50 [9]: 29.2 ± 7.1 µM
Nuclear morphological change (DAPI) [10]: chromatin condensation and nuclear fragmentation and margination of nucleus

IC50 [2]: 28.6 ± 1.96 µM
Lipid peroxidation [7]: 5.98 ± 0.114 Nmol MDA/100 mg tissue
SMILES: CC1SC(c2c(-c3ccccc3)nc3sccn23)N(c2ccc(F)cc2)C1=O (stereo not drawn) [Compound 4a, 3-(4-Fluorophenyl)-5-methyl-2-(6-phenylimidazo[2,1-b]thiazol-5-yl) thiazolidin-4-one]
% inhibition (paw edema) [1]: 79.45%
Increase in Paw volume SEM [1]: 0.141 ± 0.025
Activity relative to standard drug [1]: 98.91
Migration of A549 cells (wound healing) [3]: significant suppression in the migration of A549 cells
IC50 [4]: 22.5 ± 2.04 µM
IC50 [5]: 23.7 ± 0.85 µM
Mean ulcer severity index ± SEM [6]: 1.167 ± 0.210
Apoptotic cells (AO/EB dual staining) [8]: number of apoptotic cells enhanced
IC50 [9]: 22.8 ± 5.5 µM
Nuclear morphological change (DAPI) [10]: chromatin condensation and nuclear fragmentation and margination of nucleus
